For this assay, the target named is recombinant human GSK-3β (Homo sapiens, UniProt P49841). The assay is described as follows: Determination of inhibition of GSK-3 enzyme activity. Format: biochemical. To be noted: read-out: GSK-3 enzyme-inhibiting activity (IC50 value). Here is the method:
Determination of Inhibition of GSK-3 Enzyme Activity
To five μl of a test compound in 5% DMSO as a solvent, 25 μl of phospho-glycogen synthase peptide-2 substrate solution [6 μm phospho-glycogen synthase peptide-2, 20 μm ATP, 16 mM MOPS buffer, pH 7.0, 0.2 mM EDTA, 20 mM magnesium acetate, 0.1 μl [γ-^33P]ATP (specific activity: about 110 TBq/mmol)] was added, and 20 μl of a GSK-3β enzyme solution [10 mU recombinant human GSK-3β, 20 mM MOPS buffer, pH 7.0, 1 mM EDTA, 0.1% polyoxyethylenelauryl ether (23 Lauryl Ether; Brij 35), 5% glycerol, 0.1% β-mercaptoethanol] was further added to initiate the reaction. After reacting at room temperature for 20 minutes, an equal amount of 200 mM phosphate solution was added to stop the reaction. 90 μl of the reaction product was allowed to adsorb to the MultiScreen PH plate (Millipore), and washed with 100 mM phosphate solution. After drying said plate, 30 μl of MicroScint-O (Packard Bioscience) was added, and cpm was measured by a scintilation counter to examine the inhibition activity. As used herein, Phospho GS Peptide 2 means […]P)-Glu-Asp-Glu-Glu-Glu (SEQ ID NO: 1).

Read-outs that look alike come from different tables or passages of the source.

We go through 5 molecules from patent US20050171094A1, “Pyrrolopyrimidine derivatives” (priority 2002, published 2005).

Sequence of recombinant human GSK-3β (P49841 whole entry): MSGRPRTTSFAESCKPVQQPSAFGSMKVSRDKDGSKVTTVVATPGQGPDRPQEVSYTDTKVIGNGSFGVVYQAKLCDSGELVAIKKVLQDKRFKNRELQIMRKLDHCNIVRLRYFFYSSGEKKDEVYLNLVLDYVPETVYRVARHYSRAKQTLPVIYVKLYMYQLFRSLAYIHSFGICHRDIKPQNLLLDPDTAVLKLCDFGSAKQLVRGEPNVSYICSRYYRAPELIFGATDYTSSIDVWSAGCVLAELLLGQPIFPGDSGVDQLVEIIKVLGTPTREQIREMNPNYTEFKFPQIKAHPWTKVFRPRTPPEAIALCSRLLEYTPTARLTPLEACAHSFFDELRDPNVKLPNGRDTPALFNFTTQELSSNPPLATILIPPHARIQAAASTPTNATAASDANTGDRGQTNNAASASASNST

As usually defined, the IC50 is the point on the concentration scale where inhibition reaches its midpoint. As to `N#Cc1c2n(c3c(=S)[nH]cnc13)CCN(C(=O)Nc1cccc(C(=O)O)c1)CC2` [Compound No. 792, 3-[(11-cyano-4-thioxo-3-hydro-6H,7H,9H,10H-1,4-diazaperhydroepino[4′,5′-1,5]pyrrolo[3,2-d]pyrimidine-8-yl)carbonylamino]benzoic Acid], the IC50 (phospho-glycogen synthase peptide-2 substrate, [γ-33P]ATP, IC50 class printed in nM) is less than 50 nM.
For the molecule `Cc1ccc(NC(=O)N2CCc3c(C#N)c4nc[nH]c(=O)c4n3CC2)cc1` [Compound No. 161, (11-cyano-4-oxo(3-hydro-6H,7H,9H,10H-1,4-diazaperhydroepino[4′,5′-1,5]pyrrolo[3,2-d]pyrimidine-8-yl))-N-(4-methylphenyl)carboxamide], the IC50 (IC50 class given in μM) lay within 1000 to 10000 nM.
On to `N#Cc1c2n(c3c(=S)[nH]cnc13)CCN(Cc1ccccc1)c1ccccc1-2` [Compound No. 1799, 5-benzyl-9-thioxo-10-hydro-6H,7H-benzo[f]pyrimidino[5′,4′-2,3]pyrrolo[1,5-d]1,4-diazepine-13-carbonitrile], for which the IC50 (IC50 class given in μM) was in the range of 1000 to 10000 nM.
As for `Cc1ccc(C(=O)N2CCc3c(C#N)c4nc[nH]c(=O)c4n3CC2)cc1` [Compound No. 50, 8-[(4-methylphenyl)carbonyl]4-oxo-3-hydro-6H,7H,9H,10H-1,4-diazaperhydroepino[1′,7′-5,1]pyrrolo[3,2-d]pyrimidine-11-carbonitrile], under “IC50 class given in μM”, the IC50 lay in the range of 1000 to 10000 nM.
Same read-out and setting: in the case of `N#Cc1c2n(c3c(=S)[nH]cnc13)CCN(S(=O)(=O)c1ccccc1)CC2` [Compound No. 410, 8-(phenylsulfonyl)-4-thioxo-3-hydro-6H,7H,9H,10H-1,4-diazaperhydroepino[1′,7′-5,1]pyrrolo[3,2-d]pyrimidine-11-carbonitrile] it was 1000 to 10000 nM.
